Data as given in US4056540A, “4-Phenyl-1,3-benzodioxans” (Bristol-Myers Company, priority 1975, dated 1977).
Structures can show the parent of a compound that is named as a salt. Where two headings read alike, the source gives them in different places.

Tests used:
[1] = test system: tonic convulsions induced by maximal electroshock; test: Maximal Electroshock Test, mouse; type: in vivo; conditions: for ED50: 1 h, po, read-out: ED50 Maximal Electroshock Mouse; for blocking of tonic convulsions induced by maximal electroshock: result in words, species not given
Experimental: (§1) ^1 Test compounds including reference agents were administered orally
(§2) either as water solutions or as fine suspensions in Tween by gastric
(§3) intubation 60 min prior to the test. There were at least 3 animals per
(§4) ^2 Maximal Electroshock Test - Animals were subjected to an 80mA shoc
(§5) of 0.5 sec duration by a means of corneal electrodes using the specially
(§6) designed apparatus manufactured by Wahlquist Instrument Co. Prevention of
(§7) tonic extension by hind limbs was used as a criterion for drug effect.

[2] = test system: tonic convulsions induced by maximal electroshock; test: Maximal Electroshock Test, rat; type: in vivo; conditions: 1 h, po, read-out: ED50 Maximal Electroshock Rat
Experimental: as §1, §2, §3, §4, §5, §6, §7

[3] = test system: audiogenic seizures; test: Audiogenic Seizures, mouse; type: in vivo; conditions: for blocking of tonic convulsions induced by audiogenic seizures: result in words; for ED50: 1 h, po, read-out: ED50 Audiogenic Seizure Mouse
Experimental: as §1, §2, §3
^3 Audiogenic Seizures - Mice, which were genetically bred for the
susceptability to sound induced seizures (O'Grady Farms) were placed into
the sound attenuated box and exposed to a 120 sec sound stimulus of 85 db
and 10,000 c/sec frequincy. Prevention of tonic extension of hind limbs
was used as a criterion for drug effect.

[4] = test system: pentylenetetrazole convulsions; test: Pentylenetetrazol Infusion (Mouse); type: in vivo; conditions: for ED50: 1 h, po, read-out: ED50 Pentylenetetrazole Mouse (infusion); for antagonism of all the excitatory signs induced by pentylenetetrazol: clonic and tonic convulsions and lethality, result in words
Text: (§8) There were at least 3 animals per
^4 Pentylenetetrazol Infusion (Mouse) - The procedure originally
described by Orloff, M. H. et al., Proc. Soc. Exp. Biol. 70:254 (1949) an
adopted by our laboratories was used.

[5] = test system: pentylenetetrazole lethality; test: Pentylenetetrazol Standard Dose, mouse; type: in vivo; conditions: for effectiveness against pentylenetetrazole: result in words, species not given; for ED50: 1 h, mouse, po, pentylenetetrazol 125 mg/kg ip, prevention of lethality (footnote 5)
Text: as §8
(§9) Prevention of lethality was used as criterion for […]

[6] = test system: pentylenetetrazole lethality; test: Pentylenetetrazol Standard Dose, rat; type: in vivo; conditions: 1 h, po, pentylenetetrazol 125 mg/kg ip, prevention of lethality (footnote 5)
Text: as §8, §9

[7] = in vivo; conditions: mouse, po, 24 hours observation
Text: hours following drug administration.

[8] = test system: ouabain-induced ventricular arrhythmias; test: Reversion of ouabain-induced arrhythmia in anesthetized dogs; type: in vivo, dog; conditions: for ED100: Canis lupus familiaris, 0.5 h, read-out: I. V. Reverting Dose
Experimental: The compounds were also tested in dogs for their reversion activity in ouabain-induced arrhythmia.
(§10) Anesthetized dogs were used for the production of ouabain-induced ventricular arrhythmias. The arrhythmia consisted of a nodal or ventricular tachycardia. The procedure used to establish the arrhythmia as well as the criteria employed to determine anti-arrhythmic activity generally was that employed by Lucchesi et al. ^1
1. Lucchesi, B. L. and H. F. Hardman: The influence of dichloroisoproterenol (DCI) and related compounds upon ouabain and acetylstrophanthidin induced cardiac arrhythmias.

[9] = Effect on aortic blood pressure in the ouabain-arrhythmia anesthetized dog; type: in vivo; conditions: iv; for effect on aortic blood pressure: result in words
Experimental: as §10
Anti-arrhythmic activity of the compounds was determined by rapid intravenous injection and compared to lidocaine, disopyramide and aprindine The average prolonged reversion doses are shown below: […]

[10] = mouse, 60 min prior to test, prevention of tonic extension of hind limbs
[11] = rat, 60 min prior to test, prevention of tonic extension of hind limbs
[12] = mouse, pentylenetetrazol infusion (footnote 4)
[13] = anesthetized dog, rapid intravenous injection, IV ED100, normal sinoatrial rhythm for greater than 30 mins
[14] = mouse, 60 min prior to test, prevention of tonic extension

Which results are given for `NC[C@@H]1Oc2ccc(Cl)cc2[C@H](c2ccccc2)O1` (relative stereo) [BL-3069]?
ED50 [1, 10]: 25 mg/kg; blocking of tonic convulsions induced by maximal electroshock [1]: effective blocking agents of tonic convulsions; ED50 [2, 11]: > 20 mg/kg; blocking of tonic convulsions induced by audiogenic seizures [3]: effective blocking agents of tonic convulsions; ED50 [4, 12]: 12 mg/kg; effectiveness against pentylenetetrazole [5]: practically ineffective; ED50 [6]: > 40 mg/kg; LD50 at 24 h [7]: 300 mg/kg

With `CNC[C@@H]1Oc2ccc(Cl)cc2[C@@H](c2ccccc2)O1` (relative stereo) [BL-3100] as the compound, how does the ED100 [8, 13] read?
Its ED100 is > 10 mg/kg.

And the “Decrease in mean aortic pressure” value [9]?
Its value is 50 mmHg.

With `CNC(=O)[C@@H]1Oc2ccc(Cl)cc2[C@@H](c2ccccc2)O1` (relative stereo) [BL-3167] as the compound, how does the ED100 [8, 13] read?
The ED100 was > 10 mg/kg.

Which results are given for `CNC[C@H]1Oc2ccc(Cl)cc2[C@@H](c2ccccc2)O1.Cl` (relative stereo) [BL-3168, cis-6-Chloro-2-methylaminomethyl-4-phenyl-1,3-benzodioxan hydrochloride]?
ED50 [1, 10]: 10 mg/kg; blocking of tonic convulsions induced by maximal electroshock [1]: effective blocking agents of tonic convulsions; ED50 [2, 11]: 15 mg/kg; ED50 [3, 14]: 2.5 mg/kg; blocking of tonic convulsions induced by audiogenic seizures [3]: effective blocking agents of tonic convulsions; ED50 [4, 12]: 5 mg/kg; ED50 [5]: > 50 mg/kg; effectiveness against pentylenetetrazole [5]: practically ineffective; ED50 [6]: > 40 mg/kg; LD50 at 24 h [7]: 300 mg/kg; ED100 [8, 13]: > 10 mg/kg; Decrease in mean aortic pressure [9]: 20 mmHg

Which ED100 [8, 13] does the source give for `CC(C)NC(=O)[C@@H]1Oc2ccc(Cl)cc2[C@@H](c2ccccc2)O1` (relative stereo) [BL-3374] here?
Its ED100 is > 10 mg/kg.

For `CC(C)NC[C@@H]1Oc2ccc(Cl)cc2[C@@H](c2ccccc2)O1` (relative stereo) [BL-3379], which ED100 [8, 13] is on record?
Its ED100 is > 10 mg/kg.

With `CC(C)NC[C@@H]1Oc2ccccc2[C@@H](c2ccccc2)O1` (relative stereo) [BL-3394] as the compound, how does the ED100 [8, 13] read?
Its ED100 is ~10 mg/kg.

What about the “effect on aortic blood pressure” value [9] of the same compound?
Its value is “gressive fall in aortic”.

With `CC(C)NC[C@@H]1Oc2ccc(Cl)cc2[C@H](c2ccccc2)O1` (relative stereo) [BL-3396, cis-6-Chloro-4-phenyl-2-(2-propylaminomethyl)-1,3-benzodioxan hydrochloride] as the compound, how does the ED50 [1, 10] read?
The ED50 was 10 mg/kg.

What about the ED50 [2, 11] of the same compound?
Its ED50 is 10 mg/kg.

And the ED50 [3, 14]?
The ED50 was 2.5 mg/kg.

And the ED50 [4, 12]?
Its ED50 is 3 mg/kg.

And the ED50 [5]?
The ED50 was > 50 mg/kg.

And the ED50 [6]?
The ED50 was > 40 mg/kg.

What about the LD50 at 24 h [7] of the same compound?
The LD50 at 24 h was 400 mg/kg.

Which ED100 [8, 13] does the source give for `CC(C)NC[C@@H]1Oc2ccccc2[C@H](c2ccccc2)O1` (relative stereo) [BL-3418] here?
Its ED100 is 3 to 5 mg/kg.

With `CC(C)NC[C@H]1Oc2ccc(Cl)cc2[C@H](c2ccccc2F)O1.Cl` (relative stereo) [BL-3681A, trans-6-Chloro-4-(2-fluorophenyl)-2-(2-propylaminomethyl)-1,3-benzodioxan hydrochloride] as the compound, how does the ED50 [1, 10] read?
Its ED50 is 12 mg/kg.

What about the “blocking of tonic convulsions induced by maximal electroshock” value [1] of the same compound?
The value was “effective blocking agents of tonic convulsions”.

And the ED50 [2, 11]?
Its ED50 is 15 mg/kg.

And the ED50 [3, 14]?
The ED50 was 10 mg/kg.

What about the “blocking of tonic convulsions induced by audiogenic seizures” value [3] of the same compound?
The value was “effective blocking agents of tonic convulsions”.

What about the ED50 [4, 12] of the same compound?
Its ED50 is 12 mg/kg.

What about the ED50 [5] of the same compound?
Its ED50 is > 50 mg/kg.

What about the effectiveness against pentylenetetrazole [5] of the same compound?
The effectiveness against pentylenetetrazole was “practically ineffective”.

What about the ED50 [6] of the same compound?
The ED50 was > 40 mg/kg.

What about the LD50 at 24 h [7] of the same compound?
Its LD50 at 24 h is 300 mg/kg.

Which ED100 [8, 13] does the source give for `CNC(=O)[C@@H]1Oc2ccc(Cl)cc2[C@H](c2ccccc2)O1` (relative stereo) [BL-4093] here?
The ED100 was > 10 mg/kg.

Which Transient reversion at ([8]; anesthetized dog, iv, transient reversion only (N=2)) does the source give for `CN(C)CCCNC(=O)[C@H]1Oc2ccc(Cl)cc2[C@H](c2ccccc2)O1.Cl` (relative stereo) [BL-4932A, trans-6-Chloro-4-phenyl-N-(3-dimethylaminopropyl)-1,3-benzodioxan-2-carboxamide hydrochloride] here?
Its Transient reversion at is 10 mg/kg.

What about the “transient fall in aortic blood pressure” value ([9]; at 10 mg/kg (N=2)) of the same compound?
Its value is 50 mmHg.

For `CN(C)CCCNC(=O)[C@H]1Oc2ccc(Cl)cc2[C@@H](c2ccccc2)O1.Cl` (relative stereo) [BL-4971A, cis-6-Chloro-4-phenyl-N-(3-dimethylaminopropyl)1,3-benzodioxan-2-carboxamide hydrochloride], which ED100 [8, 13] is on record?
Its ED100 is 5 mg/kg.

What about the “effect on aortic blood pressure” value [9] of the same compound?
Its value is “No appreciable effect”.

With `CN(C)CCCNC(=O)[C@H]1Oc2ccccc2[C@@H](c2ccccc2)O1.Cl` (relative stereo) [BL-4981A, cis-4-Phenyl-N-(3-dimethylaminopropyl)-1,3-benzodioxan-2-carboxamide hydrochloride] as the compound, how does the ED100 [8, 13] read?
Its ED100 is > 10 mg/kg.

For `CCN(CC)CCCN(c1ccccc1)C1Cc2ccccc2C1` [Aprindine, reference compound], which ED100 [8, 13] is on record?
The ED100 was 2.46 ± 0.83 mg/kg.

For `CN1C(=O)CN=C(c2ccccc2)c2cc(Cl)ccc21` [Diazepam, reference compound], which ED50 ([1]; Mus musculus) is on record?
The ED50 was 6 mg/kg.

And the ED50 ([2]; Rattus norvegicus)?
Its ED50 is 10 mg/kg.

What about the ED50 ([3]; Mus musculus) of the same compound?
Its ED50 is 0.5 mg/kg.

What about the “antagonism of all the excitatory signs induced by pentylenetetrazol” value (from here on “antagonism”) [4] of the same compound?
Its value is “able to antagonize all the excitatory signs”.

With `O=C1NC(=O)C(c2ccccc2)(c2ccccc2)N1` [Diphenylhydantoin Na, reference compound] as the compound, how does the ED50 [1, 10] read?
Its ED50 is 10 mg/kg.

What about the ED50 [2, 11] of the same compound?
Its ED50 is 30 mg/kg.

And the ED50 [3, 14]?
The ED50 was 10 mg/kg.

And the ED50 [4, 12]?
The ED50 was 20 mg/kg.

What about the ED50 [5] of the same compound?
Its ED50 is > 50 mg/kg.

What about the ED50 [6] of the same compound?
The ED50 was 40 mg/kg.

With `CC(C)N(CCC(C(N)=O)(c1ccccc1)c1ccccn1)C(C)C` (centres unmarked) [Disopyramide, reference compound] as the compound, how does the ED100 [8, 13] read?
Its ED100 is 4.5 ± 1.3 mg/kg.

For `CCN(CC)CC(=O)Nc1c(C)cccc1C` [Lidocaine, reference compound], which ED100 ([8]; iv) is on record?
Its ED100 is 6.4 ± 1.4 mg/kg.

For `CCC1(c2ccccc2)C(=O)NC(=O)NC1=O` [Phenobarbital Na, reference compound], which ED50 ([1]; Mus musculus) is on record?
Its ED50 is 10 mg/kg.

And the ED50 ([2]; Rattus norvegicus)?
The ED50 was 8 mg/kg.

What about the ED50 ([3]; Mus musculus) of the same compound?
The ED50 was 2.5 mg/kg.

And the ED50 ([4]; Mus musculus)?
The ED50 was 8 mg/kg.

What about the “antagonism” value [4] of the same compound?
Its value is “able to antagonize all the excitatory signs”.

What about the ED50 [5] of the same compound?
Its ED50 is 15 mg/kg.

And the ED50 [6]?
Its ED50 is 20 mg/kg.

What about the LD50 at 24 h [7] of the same compound?
Its LD50 at 24 h is 265 mg/kg.

Which ED50 [1, 10] does the source give for `CN1C(=O)OC(C)(C)C1=O` [Trimethadione, reference compound] here?
Its ED50 is > 400 mg/kg.

What about the ED50 [2, 11] of the same compound?
The ED50 was 300 mg/kg.

And the ED50 [3, 14]?
The ED50 was 150 mg/kg.

What about the ED50 [4, 12] of the same compound?
The ED50 was 200 mg/kg.

And the “antagonism” value [4]?
The value was “able to antagonize all the excitatory signs”.

And the ED50 [5]?
Its ED50 is 400 mg/kg.

And the ED50 [6]?
Its ED50 is 100 mg/kg.

And the LD50 at 24 h [7]?
The LD50 at 24 h was 2170 mg/kg.
